Assay results: US10501460B2, “Heterocyclic compounds and uses thereof” (Plexxikon Inc., priority 2013, dated 2019)

Tests used:
BRD4-BD1 (44-164) = molecular target: T1, BRD4-BD1 (44-164) (Homo sapiens, UniProt O60885); assay: Alphascreen binding assay BRD4-BD1 (BRD4 biochemical inhibitory activity); conditions: read-out: Biochemical activity (IC50 μM) BRD4(1) H4
T1 construct: BRD4-BD1 (44-164); made in house; host or cells: E. coli BL21-CodonPlus (DE3)
Method: Binding of compounds of formula (I) with bromodomain 2, 3 4 was assessed using Alphascreen binding assay. The inhibition of the interaction between bromodomain and its acetylated target protein (Filippakopoulos P et al. 2012) was measured quantitatively using recombinant BRD proteins, an acetylated Histone 4 peptide and AlphaScreen™ technology. In absence of inhibition the BRD protein bound to AlphaScreen™ nickel chelate acceptor beads can interact with the acetylated Histone 4 peptide which is immobilized by the AlphaScreen™ Streptavidin coated beads. This interaction brings donor and acceptor beads in proximity. The close proximity allows the singlet oxygen produced by laser excitation of the donor beads to reach the acceptor beads and generate a luminescence signal. BRD inhibitors result in a decrease in the proximity signal through an inhibition of the BRD—acetylated peptide interaction.
Recombinant human bromodomains containing the N-terminal bromodomain (BRD2-BD1 (71-194), BRD3-BD1 (24-144) and BRD4-BD1 (44-164)) or dual bromodomains (BRD4-BD12 (1-477), BRD4-BD12 (1-472)) were prepared and purified as described in protein expression and purification session. The peptide is human Histone H41-21K5AcK8AcK12AcK16Ac-Biotin (Anaspec Calif., USA).
Protocol for BRD2, BRD3 and BRD4 assay: All components are prepared in buffer composed of 50 mM HEPES pH 7.5, 100 mM NaCl, 0.01% bovine serum albumin (“BSA”), 0.01% Triton X-100, 2 mM dithiothreitol (“DTT”). 7 μL of Bromodomain protein and 7 μL of peptide are added to wells containing 1 μL of various concentrations of test compounds of formula (I) or DMSO vehicle in an Alphaplate (PerkinElmer Ga., USA) and incubated for 1 hour at room temperature. 4 μL donor and acceptor bead mixture is then added with final concentrations of 7.5 μg/ml. 30 minutes after bead addition, Alpha signal is read on the Envision spectrometer ([…]Ex 680 nm, […]Em 520-620 nm). Final concentrations of bromodomain proteins and peptide are as shown below.
All data was normalized to the mean of 16 high and 16 low control wells on each plate. A four parameter curve fit of the following formula was then applied: Y=a+(b−a)/(1+(x/c)^d) Where ‘a’ is the minimum, ‘b’ is the maximum, ‘c’ is the pIC50 and ‘d’ is the Hill slope. Protein Expression and Purification
Recombinant human bromodomains containing the N-terminal bromodomain (BRD2-BD1 (71-194), BRD3-BD1 (24-144) and BRD4-BD1 (44-164)) or dual bromodomains (BRD4-BD12 (1-477), BRD4-BD12 (1-472)) were expressed in E. coli cells (in a modified pET vector) with an N-terminal six-His tag and purified using a combination of both IMAC (Ni-affinity) and size exclusion chromatography steps.
Recombinant BRD proteins were expressed using the E. coli strain BL21-CodonPlus (DE3) (Agilent Technologies Calif., USA). Cells were grown in Terrific Broth (TB) media to an OD600 of 1.2 at 37° C. at which temperature was reduced to 25° C., protein was induced with 1.0 mM ispropyl-β-D-thiogalactopyranoside (“IPTG”) for 12-18 hours and harvested by centrifugation at 8000×g for 20 minutes. Cells were re-suspended in 0.1M K2PO4 pH 8.0, 250 mM NaCl, 10% Glycerol, 0.75% NP-40, 25 mM Imidazole, 5 mM beta-mercaptoethanol (“BME”) with 0.2 mg/ml Lysosyme, 2.0 mM phenylmethanesulfonyl fluoride (“PMSF”), 25 μg/ml DNAse I, incubated on ice for 30 minutes and lyzed with a cell disruptor (MicroFluidics Mass., USA). The lysate was clarified by centrifugation at 20,000×g for 2 hours. The protein was captured with Ni-NTA resin (Life Technologies, USA). Contaminating proteins were washed off with 25 mM Tris-HCl pH 8.3, 250 mM NaCl, 12% Glycerol and 50 mM Imidazole. Following 3× wash steps, protein was eluted step wise using a 50 mM HEPES pH 7.5, 500 mM NaCl and 400 mM Imidazole. The protein was further purified using Gel Filtration column 26/600 Superdex 200 (GE Biosciences NJ, USA) in 50 mM HEPES pH 7.5, 250 mM NaCl. The protein was aliquoted and flash-frozen in liquid Nitrogen. […]

MV-4-11 = assay: Oncology cell growth assay MV-4-11 (CellTiter Glo, 72 hours); type: cell-based; conditions: Homo sapiens, MV4-11, 72 h; MV-4-11 cell growth inhibitory activity, 3d
Procedure, shortened: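 MV-4-11 cells (MLL-AF4 AML) exposed 72 h to 8-point 1:3 titration, top final 10 μM, 0.2% DMSO. CellTiter Glo luminescence as cell-number readout, normalized to DMSO controls; pIC50 from four-parameter fit.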

bromodomain = assay: Bromodomain cell assays of Example 40 (at least one of them); type: cell-based; conditions: in at least one of the bromodomain cell assays described in Example 40
Procedure, shortened: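 Growth inhibition: 3000 MV-4-11, MOLM-13, MM.1S or neuroblastoma cells/well got an 8-point 1:3 series from 10 μM top (0.2% DMSO) for 72 h, then CellTiter-Glo luminescence. Myc reporter: MV-4-11 with E-box firefly luciferase, 24 h exposure, One-Glo luminescence plus CellTiter-Fluo cell count. pIC50 from four-parameter fit.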

SMILES | IC50 (BRD4-BD1 (44-164)) [µM] | IC50 (MV-4-11) [µM] | IC50 (bromodomain) [µM]
COc1ccc(S(=O)(=O)n2ccc3ncc(-c4c(C)noc4C)cc32)cc1 [P-0032, 4-[1-(4-methoxyphenyl)sulfonylpyrrolo[3,2-b]pyridin-6-yl]-3,5-dimethyl-isoxazole] | 1 to 10 | 1 to 10 | < 10
Cc1noc(C)c1-c1cnc2ccn(S(=O)(=O)c3ccc(OC(C)C)cc3)c2c1 [P-0033, 4-[1-(4-isopropoxyphenyl)sulfonylpyrrolo[3,2-b]pyridin-6-yl]-3,5-dimethyl-isoxazole] | 1 to 10 | 1 to 10 | < 10
CCc1cc2cc(-c3c(C)noc3C)cnc2[nH]1 [P-0035, 4-(2-ethyl-1H-pyrrolo[2,3-b]pyridin-5-yl)-3,5-dimethyl-isoxazole] | 1 to 10 | 1 to 10 | < 10
Cc1noc(C)c1-c1cnc2[nH]cc(Cc3cccc(OC(F)(F)F)c3)c2c1 [P-0046, 3,5-dimethyl-4-[3-[[3-(trifluoromethoxy)phenyl]methyl]-1H-pyrrolo[2,3-b]pyridin-5-yl]isoxazole] | 1 to 10 | 1 to 10 | < 10
Cc1noc(C)c1-c1cnc2ccn(S(=O)(=O)c3ccc(F)cc3)c2c1 [P-0052, 4-[1-(4-fluorophenyl)sulfonylpyrrolo[3,2-b]pyridin-6-yl]-3,5-dimethyl-isoxazole] | 1 to 10 | 1 to 10 | < 10
Cc1noc(C)c1-c1cnc2ccn(S(=O)(=O)c3ccc(Cl)cc3)c2c1 [P-0053, 4-[1-(4-chlorophenyl)sulfonylpyrrolo[3,2-b]pyridin-6-yl]-3,5-dimethyl-isoxazole] | 1 to 10 | 1 to 10 | < 10
Cc1noc(C)c1-c1cnc2ccn(S(=O)(=O)c3cnn(C(F)F)c3)c2c1 [P-0054, 4-[1-[1-(difluoromethyl)pyrazol-4-yl]sulfonylpyrrolo[3,2-b]pyridin-6-yl]-3,5-dimethyl-isoxazole] | 1 to 10 | 1 to 10 | < 10
Cc1noc(C)c1-c1cnc2ccn(S(=O)(=O)c3cccs3)c2c1 [P-0055, 3,5-dimethyl-4-[1-(2-thienylsulfonyl)pyrrolo [3,2-b]pyridin-6-yl]isoxazole] | 1 to 10 | 1 to 10 | < 10
Cc1noc(C)c1-c1cnc2ccn(S(=O)(=O)c3cccc(F)c3)c2c1 [P-0056, 4-[1-(3-fluorophenyl)sulfonylpyrrolo[3,2-b]pyridin-6-yl]-3,5-dimethyl-isoxazole] | 1 to 10 | 1 to 10 | < 10
Cc1noc(C)c1-c1cnc2ccn(S(=O)(=O)c3cccc(Cl)c3)c2c1 [P-0057, 4-[1-(3-chlorophenyl)sulfonylpyrrolo[3,2-b]pyridin-6-yl]-3,5-dimethyl-isoxazole] | 1 to 10 | ≤ 1 | < 10
Cc1nn(C(F)F)cc1S(=O)(=O)n1ccc2ncc(-c3c(C)noc3C)cc21 [P-0058, 4-[1-[1-(difluoromethyl)-3-methyl-pyrazol-4-yl]sulfonylpyrrolo[3,2-b]pyridin-6-yl]-3,5-dimethyl-isoxazole] | 1 to 10 | 1 to 10 | < 10
Cc1csc(S(=O)(=O)n2ccc3ncc(-c4c(C)noc4C)cc32)c1 [P-0059, 3,5-dimethyl-4-[1-[(4-methyl-2-thienyl)sulfonyl]pyrrolo[3,2-b]pyridin-6-yl]isoxazole] | 1 to 10 | 1 to 10 | < 10
Cc1noc(C)c1-c1cnc2ccn(S(=O)(=O)c3cccc(OC(F)F)c3)c2c1 [P-0061, 4-[1-[3-(difluoromethoxy)phenyl]sulfonylpyrrolo [3,2-b]pyridin-6-yl]-3,5-dimethyl-isoxazole] | 1 to 10 | 1 to 10 | < 10
[2H]C([2H])([2H])n1cc(CC2CCC(F)(F)CC2)c2cc(-c3c(C)noc3C)cnc21 [P-0079, 4-[3-[(4,4-difluorocyclohexyl)methyl]-1-(trideuteriomethyl)pyrrolo[2,3-b]pyridin-5-yl]-3,5-dimethyl-isoxazole] | ≤ 1 | 1 to 10 | < 10
[2H]C([2H])([2H])n1cc(C(OC)C2CCC(F)(F)CC2)c2cc(-c3c(C)noc3C)cnc21 (stereo not drawn) [P-0080, 4-[3-[(4,4-difluorocyclohexyl)-methoxy-methyl]-1-(trideuteriomethyl)pyrrolo[2,3-b]pyridin-5-yl]-3,5-dimethyl-isoxazole] | ≤ 1 | ≤ 1 | < 10
Cc1noc(C)c1-c1cnc2c(-c3cccnc3)c[nH]c2c1 [P-0083, 3,5-dimethyl-4-[3-(3-pyridyl)-1H-pyrrolo[3,2-b]pyridin-6-yl]isoxazole] | 1 to 10 | 1 to 10 | < 10
Cc1noc(C)c1-c1cnc2[nH]cc(C(=O)C3CCSCC3)c2c1 [P-0091, [5-(3,5-dimethylisoxazol-4-yl)-1H-pyrrolo[2,3-b]pyridin-3-yl]-tetrahydrothiopyran-4-yl-methanone] | ≤ 1 | 1 to 10 | < 10
[2H]C([2H])([2H])n1cc(CC2CCN(C(=O)OCc3ccccc3)CC2)c2cc(-c3c(C)noc3C)cnc21 [P-0092, benzyl 4-[[5-(3,5-dimethylisoxazol-4-yl)-1-(trideuteriomethyl)pyrrolo[2,3-b]pyridin-3-yl]methyl]piperidine-1-carboxylate] | ≤ 1 | 1 to 10 | < 10
Cc1noc(C)c1-c1cnc2[nH]cc(C=C3CC[S+]([O-])CC3)c2c1 (stereo not drawn) [P-0093, 4-[[5-(3,5-dimethylisoxazol-4-yl)-1H-pyrrolo[2,3-b]pyridin-3-yl]methylene]thiane 1-oxide] | 1 to 10 | 1 to 10 | < 10
Cc1noc(C)c1-c1cnc2c(c1)c(C=C1CCS(=O)(=O)CC1)cn2S(=O)(=O)c1ccccc1 [P-0097, 4-[[1-(benzenesulfonyl)-5-(3,5-dimethylisoxazol-4-yl)pyrrolo[2,3-b]pyridin-3-yl]methylene]thiane 1,1-dioxide] | 1 to 10 | 1 to 10 | < 10
Cc1noc(C)c1-c1cnc2[nH]cc(C=C3CCS(=O)(=O)CC3)c2c1 [P-0099, 4-[[5-(3,5-dimethylisoxazol-4-yl)-1H-pyrrolo[2,3-b]pyridin-3-yl]methylene]thiane 1,1-dioxide] | 1 to 10 | 1 to 10 | < 10
Cc1noc(C)c1-c1cnc2c(c1)c(CC1CC3CCC1C3)cn2C (stereo not drawn) [P-0100, 3,5-dimethyl-4-[1-methyl-3-(norbornan-2-ylmethyl)pyrrolo[2,3-b]pyridin-5-yl]isoxazole] | 1 to 10 | 1 to 10 | < 10
